Assays:
[1] = molecular target: Recombinant human 92 kDa gelatinase (MMP-9) (Homo sapiens, UniProt P14780); experiment: MMP-9 enzyme inhibition assay, coumarin-labeled peptide substrate McaPLGLDpaAR; type: biochemical
Experimental: (§1) Compounds of the invention were tested to assess their activities as inhibitors of MMP-1, MMP-2, MMP-9, MMP-14 and MMP-12.
Compounds of the invention were tested for inhibitory activity against 92 kDa gelatinase (MMP-9) in an assay using a coumarin-labeled peptide substrate, (7-methoxycoumarin-4-yl)acetyl-Pro-Leu-Gly-Leu-(3-[2,4-dinitrophenyl]-L-2,3diaminopropionyl)-Ala-Arg-NH2 (McaPLGLDpaAR) (Knight et al, FEBS Lett. 1992; 263-266).
(§2) Stock solutions were made up as follows: Assay Butter: 100 mM Tris-HCl pH 7.6 containing 100 mM NaCl, 10 mM CaCl2, and 0.05% Brij 35.
(§3) Substrate: 0.4 mM McaPLGLDpaAR (from Bachem) (0.437 mg/ml) stock solution in 100% DMSO (stored at −20° C.). Dilute to 8 μM in assay butter.
Enzyme: Recombinant human 92 kDa gelatinase (MMP-9; APMA (4-aminophenyl mercuric acetate)-activated if necessary) appropriately diluted in assay butter.
(§4) Test Compounds were prepared initially as 10 mM compound solution in 100% DMSO, diluted to 1 mM in 100% DMSO, then serially diluted 3-fold in 100% DMSO across columns 1-10 of a 96-well microtitre plate Assay concentration range, 100 μM (column 1) to 5.1 nM (column 10).
(§5) The assay was performed in a total volume of 100 μL per well in 96-well microtitre plates. Activated enzyme (20 μL) was added to the wells followed by 20 μL of assay butter. Appropriate concentrations of test compounds dissolved in 10 μL of DMSO were then added followed by 50 μL of McaPLGLDpaAR (8 μM, prepared by dilution of DMSO stock in assay butter). For each as say ten concentrations of test compound were examined in duplicate. Control wells lack either enzyme or test compound. The reactions were incubated at 37° C. for 2 hours. The fluorescence at 405 nm was measured immediately with an SLT Fluostar fluorometer (SLT Labinstruments GmbH, Grödig, Austria) using 320 nm excitation, without stopping the reaction.
(§6) The effect of the test compound was determined from the dose response curve generated by the 10 duplicate concentrations of inhibitor. The IC50 (the concentration of compound required to give a 50% decrease in enzyme activity) was obtained by fitting data to the equation, Y=a+((b−a)/(1+(c/X)^d)). (Y=inhibition achieved for a particular dose; X=the dose in nM; a=minimum y or zero % inhibition; b=maximum y or 100% inhibition; c=is the IC50; d=is the slope). The result was rounded to one significant figure.

MMP-2 = molecular target: T1, MMP-2 (Homo sapiens, UniProt P08253); experiment: MMP-2 enzyme inhibition assay, coumarin-labelled peptide substrate McaPLGLDpaAR; type: biochemical
T1 sequence (P08253 110-660): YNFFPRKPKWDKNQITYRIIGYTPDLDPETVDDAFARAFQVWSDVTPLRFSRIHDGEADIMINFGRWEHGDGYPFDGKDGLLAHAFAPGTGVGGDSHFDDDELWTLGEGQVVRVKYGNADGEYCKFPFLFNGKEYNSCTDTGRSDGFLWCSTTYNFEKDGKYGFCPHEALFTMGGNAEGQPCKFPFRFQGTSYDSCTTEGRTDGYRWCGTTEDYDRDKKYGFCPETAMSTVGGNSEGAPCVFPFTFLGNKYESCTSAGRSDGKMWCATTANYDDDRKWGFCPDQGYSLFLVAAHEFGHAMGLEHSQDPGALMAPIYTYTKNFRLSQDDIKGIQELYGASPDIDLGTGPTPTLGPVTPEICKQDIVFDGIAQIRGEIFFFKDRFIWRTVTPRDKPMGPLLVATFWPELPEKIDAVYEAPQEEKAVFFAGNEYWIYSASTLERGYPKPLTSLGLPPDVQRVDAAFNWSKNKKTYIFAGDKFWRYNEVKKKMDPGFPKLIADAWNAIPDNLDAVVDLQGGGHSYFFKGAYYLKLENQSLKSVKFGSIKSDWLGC
Experimental: as §1, §2, §3, §4, §5, §6
Compounds of the invention were tested for inhibitory activity against collagenase (MMP-2) in an assay using a coumarin-labelled peptide substrate, (7-methoxycoumarin-4-yl)acetyl-Pro-Leu-Gly-Leu-(3-[2,4-dinitrophenyl]-L-2,3diaminopropionyl)-Ala-Arg-NH2 (Mca PLGLDpaAR) (Knight et al, 1992, above). The protocol for this assay was as described for the MMP-9 assay above.

metalloelastase (MMP-12) = metalloelastase (MMP-12) (Homo sapiens, UniProt P39900); experiment: MMP-12 enzyme inhibition assay, coumarin-labelled peptide substrate McaPLGLDpaAR; type: biochemical
Experimental: as §1, §2, §3, §4, §5, §6
Compounds of the invention were tested for inhibitory activity against metalloelastase (MMP-12) in an assay using a coumarin-labelled peptide substrate, (7-methoxycoumarin-4-yl)acetyl-Pro-Leu-Gly-Leu-(3-[2,4dinitrophenyl]-L-2,3-diaminopropionyl)-Ala-Arg-NH2 (McaPLGLDpaAR) (Knight et al, 1992, above). The protocol for this assay was as described for the MMP-9 assay above.

[2] = system: IL-2-induced peritoneal recruitment of lymphocytes; experiment: IL-2-induced peritoneal recruitment of lymphocytes; type: in vivo, C3H/HEN mice; settings: subcutaneous, 15 min prior to IL-2, cells collected 24 h after IL-2, mice
Experimental: Administration of IL-2 intraperitoneally causes migration of lymphocytes into the intraperitoneal cavity. This is a model for the cellular migration that occurs during inflammation.
C3H/HEN mice (Elevage Janvier, France) were intraperitoneally injected with IL-2 (Serono Pharmaceutical Research Institute, 20 μg/kg, in saline).
Compounds of the invention were suspended in 0.5% carboxymethylcellulose (CMC)/0.25% tween-20 and were administered by s.c. or p.o. route (10 ml/kg) 15 min prior to administration of IL-2.
Twenty-four hours after administration of IL-2, peritoneal white blood cells were collected by 3 successive lavages of the peritoneal cavity with 5 ml phosphate buffered saline (PBS)-1 mM EDTA (+4° C.). The suspension was centrifuged (1700 g×10 min at +4° C.). The resulting pellet was suspended in 1 ml PBS-1 mM EDTA.
Lymphocytes were identified and counted using a Beckman/Coulter counter.
The animals were divided into 6 groups (6 mice each group):
Group 1: (baseline) received 0.5% CMC/0.25% tween-20 (vehicle of compound of the invention) and saline (vehicle of IL-2);
Group 2: (control IL-2) received 0.5% CMC/0.25% tween-20 and injection of IL-2;
Group 3: Experimental group (Compound of the invention Dose 1) received a compound of the invention and injection of IL-2; […]
Inhibition of lymphocyte recruitment was calculated as follows: […]

Chain of metalloelastase (MMP-12) (P39900 106-470): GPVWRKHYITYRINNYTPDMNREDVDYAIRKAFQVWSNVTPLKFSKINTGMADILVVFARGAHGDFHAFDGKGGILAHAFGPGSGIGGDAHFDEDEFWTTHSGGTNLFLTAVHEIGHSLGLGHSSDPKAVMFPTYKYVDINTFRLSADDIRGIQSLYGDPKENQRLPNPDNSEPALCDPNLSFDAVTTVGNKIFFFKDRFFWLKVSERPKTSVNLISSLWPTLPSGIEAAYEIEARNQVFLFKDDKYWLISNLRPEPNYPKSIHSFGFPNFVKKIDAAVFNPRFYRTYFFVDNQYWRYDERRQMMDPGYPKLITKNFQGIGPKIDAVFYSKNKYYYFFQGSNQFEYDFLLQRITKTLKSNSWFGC
Chain of Recombinant human 92 kDa gelatinase (MMP-9) (P14780 107-707 limits assumed): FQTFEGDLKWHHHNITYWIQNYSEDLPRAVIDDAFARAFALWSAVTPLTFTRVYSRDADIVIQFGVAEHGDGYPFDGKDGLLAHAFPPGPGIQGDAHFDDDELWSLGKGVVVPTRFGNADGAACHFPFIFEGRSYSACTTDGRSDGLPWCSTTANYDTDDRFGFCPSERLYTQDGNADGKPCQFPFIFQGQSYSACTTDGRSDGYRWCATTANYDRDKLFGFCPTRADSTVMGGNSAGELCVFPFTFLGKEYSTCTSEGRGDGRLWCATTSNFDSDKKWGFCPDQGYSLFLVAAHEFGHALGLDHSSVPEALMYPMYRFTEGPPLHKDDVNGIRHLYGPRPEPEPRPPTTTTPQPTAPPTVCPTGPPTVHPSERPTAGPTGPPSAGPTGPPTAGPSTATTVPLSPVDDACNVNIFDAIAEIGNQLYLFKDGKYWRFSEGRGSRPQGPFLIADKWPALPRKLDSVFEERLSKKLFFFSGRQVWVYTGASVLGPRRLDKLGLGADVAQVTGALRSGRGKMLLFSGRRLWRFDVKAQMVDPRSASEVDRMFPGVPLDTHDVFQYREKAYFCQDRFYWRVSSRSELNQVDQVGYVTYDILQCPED

IC50 [1]	IC50 (MMP-2)	IC50 (metalloelastase (MMP-12))	SMILES	% inhibition of IL-2-induced peritoneal recruitment of lymphocytes ([2]; 3 mg/kg)	% inhibition of IL-2-induced peritoneal recruitment of lymphocytes ([2]; 10 mg/kg)
1.5 µM	0.85 µM	0.98 µM	COCCOC(=O)N1CC[C@H]2C[C@@H](C(=O)NO)N(S(=O)(=O)c3ccc(OC)cc3)[C@H]2C1 (relative stereo) [Example 5, 2-methoxyethyl rel-(2S,3aS,7aR)-2-[(hydroxyamino)carbonyl]-1-[(4-methoxyphenyl)sulfonyl]octahydro-6H-pyrrolo[2,3-c]pyridine-6-carboxylate]		
0.041 µM	0.05 µM	0.05 µM	COc1ccc(S(=O)(=O)N2[C@H](C(=O)NO)C[C@@H]3CCN(C(=O)CCc4ccccc4)C[C@@H]32)cc1 (relative stereo) [Example 8, rel-(2S,3aS,7aR)—N-hydroxy-1-[(4-methoxyphenyl)sulfonyl]-6-(3-phenylpropanoyl)octahydro-1H-pyrrolo[2,3-c]pyridine-2-carboxamide]	33%	
1.5 µM	1.2 µM	0.93 µM	CCN(CC)C(=O)CN1CC[C@H]2C[C@@H](C(=O)NO)N(S(=O)(=O)c3ccc(OC)cc3)[C@H]2C1 (relative stereo) [Example 14, rel-(2S,3aS,7aR)-6-[2-(diethylamino)-2-oxoethyl]-N-hydroxy-1-[(4-methoxyphenyl)sulfonyl]octahydro-1H-pyrrolo[2,3-c]pyridine-2-carboxamide]		
0.68 µM	0.49 µM	0.4 µM	COc1ccc(S(=O)(=O)N2[C@H](C(=O)NO)C[C@@H]3CCN(C(=O)OCc4ccccc4)C[C@@H]32)cc1 (relative stereo) [Example 18, benzyl rel-(2S,3aS,7aR)-2-[(hydroxyamino)carbonyl]-1-[(4-methoxyphenyl)sulfonyl]octahydro-6H-pyrrolo[2,3-c]pyridine-6-carboxylate]		
0.43 µM	0.32 µM	0.34 µM	COc1ccc(S(=O)(=O)N2[C@H](C(=O)NO)C[C@@H]3CCN(C(=O)Nc4ccccc4)C[C@@H]32)cc1 (relative stereo) [Example 16, rel-(2S,3aS,7aR)—N^2-hydroxy-1-[(4-methoxyphenyl)sulfonyl]-N^6-phenyloctahydro-6H-pyrrolo[2,3-c]pyridine-2,6-dicarboxamide]		
1.1 µM	0.79 µM	0.61 µM	COc1ccc(S(=O)(=O)N2[C@H](C(=O)NO)C[C@@H]3CCN(C(=O)C4CCCC4)C[C@@H]32)cc1 (relative stereo) [Example 7, rel-2S,3aS,7aR)-6-cyclopentylcarbonyl)-N-hydroxy-1-[(4-methoxyphenyl)sulfonyl]octahydro-1H-pyrrolo[2,3-c]pyridine-2-carboxamide]		
0.78 µM	0.64 µM	0.64 µM	COc1ccc(S(=O)(=O)N2[C@H](C(=O)NO)C[C@@H]3CCN(C(=O)CCC4CCCC4)C[C@@H]32)cc1 (relative stereo) [Example 4, rel-2S,3aS,7aR)-6-(3-cyclopentylpropanoyl)-N-hydroxy-1-[(4-methoxyphenyl)sulfonyl]octahydro-1H-pyrrolo[2,3-c]pyridine-2-carboxamide]		
1.8 µM	1.6 µM	0.95 µM	COc1ccc(S(=O)(=O)N2CC[C@H]3C[C@@H](C(=O)NO)N(S(=O)(=O)c4ccc(OC)cc4)[C@H]3C2)cc1 (relative stereo) [Example 10, rel-(2S,3aS,7aR)—N-hydroxy-1,6-bis[(4-methoxyphenyl)sulfonyl]octahydro-1H-pyrrolo[2,3-c]pyridine-2-carboxamide]		
1.6 µM	1.7 µM	1.2 µM	COc1ccc(S(=O)(=O)N2[C@H](C(=O)NO)C[C@@H]3CCN(C(=O)c4ccc(-c5ccccc5)cc4)C[C@@H]32)cc1 (relative stereo) [Example 12, rel-(2S,3aS,7aR)-6-(biphenyl-4-ylcarbonyl)-N-hydroxy-1-[(4-methoxyphenyl)sulfonyl]octahydro-1H-pyrrolo[2,3-c]pyridine-2-carboxamide]		
1.7 µM	2.1 µM	1.1 µM	COc1ccc(S(=O)(=O)N2[C@H](C(=O)NO)C[C@@H]3CCN(C(=O)c4ccccc4)C[C@@H]32)cc1 (relative stereo) [Example 1, rel-(2S,3aS,7aR)-6-benzoyl-N-hydroxy-1-[(4-methoxyphenyl)sulfonyl]octahydro-1H-pyrrolo[2,3-c]pyridine-2-carboxamide]		
0.15 µM	0.095 µM	0.13 µM	COc1ccc(S(=O)(=O)N2[C@H](C(=O)NO)C[C@@H]3CCN(C(C)=O)C[C@@H]32)cc1 (relative stereo) [Example 2, rel-(2S,3aS,7aR)-6-acetyl-N-hydroxy-1-[(4-methoxyphenyl)sulfonyl]octahydro-1H-pyrrolo[2,3-c]pyridine-2-carboxamide]		
0.87 µM	0.37 µM	0.08 µM	CS(=O)(=O)N1CC[C@H]2C[C@@H](C(=O)NO)N(S(=O)(=O)c3ccc(Oc4ccncc4)cc3)[C@H]2C1 (relative stereo) [Example 11, rel-(2S,3aS,7aR)—N-hydroxy-6-(methylsulfonyl)-1-{[4-(pyridin-4-yloxy)phenyl]sulfonyl}octahydro-1H-pyrrolo[2,3-c]pyridine-2-carboxamide]		38%

— patent US7932389B2, “Octahydropyrrolo[2,3C]pyridine derivatives and pharmaceutical use thereof” (Merck Serono S.A., priority 2004, dated 2011)
